Measured values taken from ChEMBL document CHEMBL5625164, “Design, synthesis, and evaluation of new anti-inflammatory natural products amide derivatives endowed with anti-blood cancer activity towards development of potential multifunctional agents against hematological cancers” (Eur J Med Chem, 2023).

Assays:
BV-2 [1] = experiment: Anti-inflammatory activity against mouse BV-2 cells assessed as inhibition of LPS-induced PGE2 production pretreated for 2 hrs followed stimulated with LPS for 22 hrs at 10 uM relative to control; type: functional; details: time 24 hrs
CCRF-CEM = experiment: Anticancer activity against human CCRF-CEM cells assessed as growth inhibition at 10 uM measured after 48 hrs by SRB assay relative to control; type: functional; details: read-out: GI
BV-2 [2] = experiment: Anti-inflammatory activity against mouse BV-2 cells assessed as inhibition of LPS-induced NO production pretreated for 2 hrs followed stimulated with LPS for 22 hrs by Griess reaction assay; type: functional, cell-based
K562 = experiment: Anticancer activity against human K562 cells assessed as growth inhibition at 10 uM measured after 48 hrs by SRB assay relative to control; type: functional; details: read-out: GI
SR = experiment: Anticancer activity against human SR cells assessed as growth inhibition at 10 uM measured after 48 hrs by SRB assay relative to control; type: functional; details: read-out: GI
BV-2 [3] = experiment: Anti-inflammatory activity against mouse BV-2 cells assessed as inhibition of LPS-induced TNFalpha production pretreated for 2 hrs followed stimulated with LPS for 22 hrs at 10 uM relative to control; type: functional; details: time 24 hrs
BV-2 [4] = experiment: Anti-inflammatory activity against mouse BV-2 cells assessed as inhibition of LPS-induced TNFalpha production pretreated for 2 hrs followed stimulated with LPS for 22 hrs; type: functional, cell-based
RPMI-8226 = experiment: Anticancer activity against human RPMI-8226 cells assessed as growth inhibition at 10 uM measured after 48 hrs by SRB assay relative to control; type: functional; details: read-out: GI
MOLT-4 = experiment: Anticancer activity against human MOLT-4 cells assessed as growth inhibition at 10 uM measured after 48 hrs by SRB assay relative to control; type: functional; details: read-out: GI
BV-2 [5] = experiment: Anti-inflammatory activity against mouse BV-2 cells assessed as inhibition of LPS-induced PGE2 production pretreated for 2 hrs followed stimulated with LPS for 22 hrs; type: functional, cell-based
[6] = Cytotoxicity against mouse RAW264.7 cells assessed as macrophage viability at 10 uM relative to control; type: toxicity, cell-based; details: read-out: Activity
BV-2 [7] = experiment: Anti-inflammatory activity against mouse BV-2 cells assessed as inhibition of LPS-induced NO production at 10 uM pretreated for 2 hrs followed stimulated with LPS for 22 hrs by Griess reaction assay relative to control; type: functional; details: time 24 hrs
HL-60 = experiment: Anticancer activity against human HL-60 cells assessed as growth inhibition at 10 uM measured after 48 hrs by SRB assay relative to control; type: functional; details: read-out: GI

Row | Compound | inhibition at 10 µM (BV-2 [1]) [%] | inhibition of growth at 10 µM (CCRF-CEM) [%] | IC50 (BV-2 [2]) [µM] | inhibition of growth at 10 µM (K562) [%] | inhibition of growth at 10 µM (SR) [%] | inhibition at 10 µM (BV-2 [3]) [%] | Activity (BV-2 [4]; time 24.0 hrs) | inhibition of growth at 10 µM (RPMI-8226) [%] | inhibition of growth at 10 µM (MOLT-4) [%] | IC50 (BV-2 [5]) [µM] | viability at 10 µM [6] [%] | inhibition at 10 µM (BV-2 [7]) [%] | IC50 (BV-2 [4]) [µM] | inhibition of growth at 10 µM (HL-60) [%]
1 | COc1cc2c(c(OC)c1OC)C(=O)CC(c1cccc(NC(=O)c3ccc([N+](=O)[O-])cc3)c1)O2 (racemic) | 51.6 | 75.6 | 19.8 | 64.6 | 73.8 | 54.6 | Dose-Dependent Effect | 66.6 | 84.2 | 9.8 | 104 | 35.8 | – | –
2 | COc1cc2c(c(OC)c1OC)C(=O)CC(c1cccc(C(=O)Nc3cccc([N+](=O)[O-])c3)c1)O2 (racemic) | 31.4 | 89.7 | 14.7 | 63.5 | 66.2 | – | – | 82.7 | 77.2 | 10.7 | 111 | 42.7 | > 20 | 49.4
